# Source: patent publication US12257251B2, “Use of FAK inhibitor in preparation of drug for treating tumors having NRAS mutation” (INXMED (NANJING) CO., LTD., priority 2019, dated 2025)
# Read-outs that look alike come from different tables or passages of the source.
# Columns and labels:
# [1] = system: Ba/F3-NRAS^G12D cell line; assay: Antiproliferative test (CellTiter Glo, 48 hours) in NRAS^G12D-transfected Ba/F3 cells; type: cell-based, murine; details: for IC50: Mus musculus
# Description: The Ba/F3 cell line was obtained from ATCC in 2009, and cultured according to a method described in Zhang X Ren R. Bcr-abl efficiently induces a myeloproliferative disease and production of excess interleukin-3 and granulocyte-macrophage colony-stimulating factor in mice: A novel model for chronic myelogenous leukemia. Blood., 1998, 92: 3829-40. Growth factor-dependent BA/F3 cells were cultured in RPMI 1640 including 10% FBS and supplemented with 15% WEHI-3 conditioned medium or recombinant IL-3 (Roche) as a source of IL-3 at a final concentration of 1 ng/ml. […] Cancer Res., 2007, 67: 7139-46 and Fredericks J, Ren R. The role of RAS effectors in BCRIABL induced chronic myelogenous leukemia. Front Med China., 2013, 7: 452-61. Upon receipt of the original stock, cells were expanded and frozen at a low passage rate (<3). Frozen cells were thawed and used in this study, with cell passages limited to 15 for all experimental procedures. All cells were tested regularly to ensure freedom and maintenance in a normal state of mycoplasma.
# NRAS^G12D-transfected Ba/F3 (Ba/F3-N) or KRAS^G12D-transfected Ba/F3 ([…]) cells were seeded into 96-well cell culture cluster plate in 100 μL of medium at a density of 5,000 cells per well. BI853520 was diluted 3-fold with RPMI 1640 at 9 points, and added according to the volume of each well, starting at 10 μmol/L to reach a 3-fold concentration gradient (final solvent concentration <1/1000). PD0325901 was used as a positive control. After 48 hours of incubation, cell viability was measured using CellTiter Glo (Promega). Luminescence was detected using an Envision plate reader (PerkinElmer). The calculation method of Z factor was as described in Zhang J H, Chung T D Y, Oldenburg K R. A simple statistical parameter for use in evaluation and validation of high throughput screening assays. J Biomol Screen., 1999, 4: 67-73, and the following analysis only used data with Z factor >0.6. […]
# [2] = Body weight change (tolerability) in the KYSE-270 xenograft study; type: in vivo, mouse; details: for Change in median weight: BI853520 50 mg/Kg qd, day 13 versus day 1
# Description: 1.7. Monitoring tumor growth and side effects: Tumor diameters were measured with calipers three times a week. The volume [mm^3] of each tumor was calculated according to the equation “tumor volume=length×diameter^2×π/6”. To monitor the side effects of the treatment, the mice were checked daily for abnormalities and their body weights were measured three times a week. For ethical reasons, animals with tumors larger than 1.5 cm in diameter, ulcerated tumors, or 20% body weight loss were euthanized.
# The wilcoxon test was used for comparison. For body weight, the percent change relative to initial body weight on day 1 was used as the target variable for statistical analysis. The number of animals, and the median, minimum and maximum weight changes in each group were calculated.
# One-sided test to compare all treatment groups with control group was performed for observing: • reduction in tumor volume (inhibition of tumor growth, efficacy parameter) and • reduction in weight changes (weight loss, tolerance parameters).
# Within each subtopic, p-values for the efficacy parameter were compared and adjusted for multiple times according to Bonferroni-Holm. The p-value for the tolerance parameter was kept constant so as not to overlook possible side effects. Significance level was fixed at α=5%. A p-value (adjusted) of less than 0.05 was considered to show a statistically significant difference between groups, and 0.05≤p-value<0.10 was considered as an indicative difference. Statistical evaluations were performed using the SAS software package version 9.4 (SAS Institute Inc., Cary NC, USA).
smiles,measurement,setting,value
COc1cc(C(=O)NC2CCN(C)CC2)c(F)cc1Nc1ncc(C(F)(F)F)c(Oc2cccc3c2C(=O)N(C)C3)n1 [BI853520],Increase of IC50 after addition of IL-3,[1]; + IL-3 versus − IL-3,more than 4 fold
same,IC50,"[1]; BaF3, after addition of IL-3, 48 hours, read-out: IC50 (antiproliferative effect), + IL-3",15 µM
same,IC50,"[1]; BaF3, without IL-3, 48 hours, read-out: IC50 (antiproliferative effect), − IL-3",3.4 µM
same,Change in median weight,[2]; 50 mg/kg,+2.8%
same,Change in median weight,"[2]; listed as BI 853520, 50 mg/kg",2.8%
same,Tolerability (in words),[2]; BI 853520 50 mg/kg,well tolerated
